{"source": "a melting point compilation (Tetko et al.; mined from patent text by program, amines drawn as free bases though some values may be those of a salt)"}
{"units": {"melting point": "°C"}}
{"molecule": "O=C(CC(c1ccccc1)(c1ccccc1)c1ccccc1)N1CC2=C(C1)c1cccc3cccc2c13", "melting point": "159 to 168"}
{"molecule": "CN(c1cc2occc(=O)c2cc1Oc1ccccc1)S(C)(=O)=O", "melting point": "187 to 189"}
{"molecule": "O=C(O)c1ccc(-c2ccccc2O)cc1", "melting point": "176 to 178"}
{"molecule": "COc1cc(SC(C)C)cc(C#N)c1N", "melting point": "81 to 82"}
{"molecule": "O=C1CCC(N2C(=O)c3ccc(CNC(=O)c4cc5ccccc5s4)cc3C2=O)C(=O)N1", "note": "(configuration not stated)", "melting point": "318 to 320"}
{"molecule": "COC(=O)c1c(Cl)cc(Cl)cc1NC(=O)CSc1ccc(NC(=O)Cc2cccc(Br)c2)cc1", "melting point": "177 to 180"}
{"molecule": "CCCC(Cc1ccccc1)c1nc2c([nH]1)c(=O)n(CCC)c(=O)n2CCC", "note": "(configuration not stated)", "melting point": "158 to 160"}
{"molecule": "CCN1c2ncc(CCc3cccc(N)c3)cc2C(=O)N(C)c2cccnc21", "melting point": "129 to 131"}
{"molecule": "C=CCC(C)(C)C(O)C(c1cccc(OC)c1)n1ccnc1", "note": "(configuration not stated)", "melting point": 83}
{"molecule": "O=C(Nc1ccc(OC(F)(F)F)cc1)NC1CCNCC1", "melting point": "169 to 173"}
{"molecule": "CC(=CC(=O)Nc1ccccc1)Oc1ccccc1", "melting point": 145}
{"molecule": "O=C(NCc1cccnc1)c1cc(-n2cnn(Cc3ccc(F)cc3)c2=O)[nH]n1", "melting point": "235 to 236"}
{"molecule": "COc1ccc2cnc(Cl)nc2c1C(C)C", "melting point": "135 to 137"}
{"molecule": "Cc1c(C(=O)Cl)ccc(S(C)(=O)=O)c1C1=NOCC1", "melting point": "183 to 184"}
{"molecule": "Cc1cc(OCc2cnc(-c3ccc(C(F)(F)F)cc3)cc2C(F)(F)F)ccc1OC(C)(C)C(=O)O", "melting point": "148 to 149"}
{"molecule": "CCCCOCC(O)COc1ccc(-c2nc(OC)nc(-c3ccc(OCC(O)COCCCC)cc3O)n2)c(O)c1", "note": "(configuration not stated)", "melting point": "98 to 99"}
{"molecule": "NC(=O)Nc1ccc2c(c1)N1CCCN=C1S2", "melting point": 246}
{"molecule": "CN(C)C(=O)n1cc(C(=O)C2CSC(c3cccnc3)N2)c2ccc(Oc3ccc(F)cc3)cc21", "note": "(configuration not stated)", "melting point": "72 to 75"}
{"molecule": "CC(C)(C)Oc1cccc(C(=O)Nc2ccc(OCCN3CCOCC3)c3ccccc23)c1", "melting point": "135 to 136"}
{"molecule": "Oc1ccc2cc(F)ccc2c1", "melting point": "118 to 120"}
{"molecule": "CCCCC12CCC3=C(CCc4cc(OC)ccc43)C1CCC2O", "note": "(configuration not stated)", "melting point": "90 to 100"}
{"molecule": "CCOC(=O)c1ccc(-c2cccc(CNC=O)n2)cc1", "melting point": 120}
{"molecule": "c1ccc(OCCCN2CCC(CNc3nc4ccccc4s3)CC2)cc1", "melting point": 114}
{"molecule": "CNC(=O)[C@H](Cc1ccc(OC(C)C)cc1)NC(=O)[C@@H](N)CC(C)C", "melting point": "148 to 160"}
{"molecule": "CCOC(=O)Cc1ccc(-c2nc(COc3cc(C(=O)OC)on3)c(C)o2)cc1", "melting point": "124 to 126"}
{"molecule": "COc1ccc(C(=O)NCCCCCCCNC(=O)c2ccc(OC)c(OC)c2)cc1OC", "melting point": "160 to 161"}
{"molecule": "CCCCc1nc2c(N)nc3ccccc3c2n1CCCC(=NO)c1ccccc1", "melting point": "242 to 244"}
{"molecule": "CCC(=NC#N)N[C@@H]1c2cc(C#N)ccc2OC(C)(C)[C@H]1O", "note": "(relative stereo)", "melting point": "122 to 124"}
{"molecule": "CC1(C)NC(=O)N(c2ccc([N+](=O)[O-])c(C(F)(F)F)c2)C1=N", "melting point": 168}
{"molecule": "Fc1cccc(C2OC3(CCNCC3)N3CCCCC23)c1", "note": "(configuration not stated)", "melting point": "133 to 135"}
{"molecule": "Nc1cccc2c1OCCO2", "melting point": "134 to 135"}
{"molecule": "Cc1ccccc1N(C)c1nc(=O)c2cccnc2s1", "melting point": "208 to 209"}
{"molecule": "N#Cc1coc2cc(O)ccc2c1=O", "melting point": "292 to 293"}
{"molecule": "CC(ON1C(C)(C)CC2(CC1(C)C)OCC(C)(C)CO2)c1ccc(C(=O)c2ccccc2)cc1", "note": "(configuration not stated)", "melting point": "104 to 117"}
{"molecule": "COCCn1nnc2cc3c(cc2c1=O)OCN(C1CC1)C3=O", "melting point": "103 to 105"}
{"molecule": "CC(C)(C)OC(=O)Nc1ccccc1O", "melting point": 145}
{"molecule": "COC(=O)c1cc(C(=O)OC)cc(S(N)(=O)=O)c1", "melting point": "148 to 150"}
{"molecule": "CN(C)CCNC(=O)c1cccc(N)c1", "melting point": "97 to 100"}
{"molecule": "CC(C)(C)c1cccc(S(=O)(=O)n2c(Cc3ccc(C(=O)O)cc3)cc3ccc(C(F)(F)F)cc32)c1", "melting point": 199}
{"molecule": "COC(=O)C(=O)NC(=O)CC(F)=C(F)F", "melting point": "33 to 34"}
{"molecule": "NS(=O)(=O)c1ccc(-c2[nH]c3ccccc3c2-c2ccc(O)cc2)cc1", "melting point": "241 to 243"}
{"molecule": "CCO/C(C)=C(/C#N)C(N)=S", "melting point": "201 to 204"}
{"molecule": "Cc1nc2cc(C(C)C(=O)O)ccc2o1", "note": "(configuration not stated)", "melting point": "115 to 117"}
{"molecule": "O=C(CN1CCC(Oc2ccccc2)CC1)Nc1ccc2c(c1)OCC(=O)N2", "melting point": "206 to 208"}
{"molecule": "N#Cc1c(Cl)ccc(Cl)c1Cl", "melting point": "117 to 119"}
{"molecule": "CCNC(=O)Nc1cc(-c2c(-c3ccc(F)c(C)c3)nc3c(C)cc(Cl)nn23)ccn1", "melting point": "229 to 230"}
{"molecule": "COc1ccc(-n2cccc2)c(N)c1", "melting point": "42 to 43"}
{"molecule": "CC(C)C[C@H](NC(=O)[C@H](Cc1c[nH]cn1)NC(=O)[C@H](Cc1cccc2ccccc12)NC(=O)OCc1ccccc1)[C@@H](O)CC(N)=O", "melting point": "158 to 161"}
{"molecule": "O=[N+]([O-])c1ccc(CCN2CCN(c3ccc([N+](=O)[O-])cc3Cl)CC2)cc1", "melting point": "100 to 102"}
{"molecule": "COC(=O)C12Cc3cc(Cl)ccc3C1=NNCO2", "note": "(configuration not stated)", "melting point": "124 to 127"}
{"molecule": "Cc1c(C)c(Cl)c2ccccc2c1Cl", "melting point": 142}
{"molecule": "Cc1cnc(C(=O)NC(C)C)c(C(=O)O)c1", "melting point": "95 to 105"}
{"molecule": "CSc1nc(Cl)c(-c2ccccc2)c(NN)n1", "melting point": "134 to 135"}
{"molecule": "Nc1cc(O)nc(SCc2cccc(F)c2F)n1", "melting point": "218 to 221"}
{"molecule": "CCCCCCCCNC(=O)C1=C(C(=O)Nc2cc(OC3CCCC3)c(Cl)cc2F)CCCC1", "melting point": "127 to 130"}
{"molecule": "OC[C@H](F)[C@H](OCc1ccccc1)[C@H](OCc1ccccc1)[C@@H](O)C(F)(F)F", "melting point": "64 to 65"}
{"molecule": "CCc1nc(N)nc(N)c1-c1ccc(N(C)Cc2ccc(C(=O)NC)cc2)c([N+](=O)[O-])c1", "melting point": "235 to 237"}
{"molecule": "Cc1occ(S(=O)(=O)NC(C)(C)C)c1C", "melting point": "95 to 96"}
{"molecule": "C=Cc1ccc2nc(Cl)c(S(N)(=O)=O)n2n1", "melting point": "229 to 233"}
{"molecule": "O=C(NCc1cccnc1)[NH+]([O-])c1cccc2ccccc12", "note": "(configuration not stated)", "melting point": 188}
{"molecule": "COc1cc(C(=O)N2Cc3ccc(C(=O)NCc4ccc(C)cc4)n3Cc3ccccc32)ccc1-c1ccccc1C", "melting point": "179 to 180"}
{"molecule": "COc1cc(OC)c2c(=O)[nH]c(-c3ccc4[nH]c(CO)cc4c3)nc2c1", "melting point": "264 to 265"}
{"molecule": "CC(=O)n1c2ccccc2c2ccc(C(=O)CCl)cc21", "melting point": "175 to 176"}
{"molecule": "Cc1nc2c(F)cccc2c(Cl)c1CCCl", "melting point": "101 to 103"}
{"molecule": "CCCc1c(OCc2ccc(C(=O)O)c(Br)c2)ccc(C(C)=O)c1O", "melting point": "80 to 83"}
{"molecule": "CC(C)Cc1cc2nnc(-c3ccccc3F)n2nc1OCc1ncnn1C", "melting point": "134 to 136"}
{"molecule": "N=C(N)NCCc1ccc(OCCC2Oc3ccccc3N(Cc3cccc(Cl)c3)C2=O)cc1", "note": "(configuration not stated)", "melting point": "90 to 101"}
{"molecule": "CC1(C)CCC(C)(C)c2cc(C#Cc3ccc(C(=O)O)cc3)ccc21", "melting point": "252 to 256"}
{"molecule": "C#CCCn1ncc2c(N)c(C(=O)OCC=C)c(C)nc21", "melting point": "115 to 116"}
{"molecule": "ClCSc1c(Cl)c(Cl)cc(Cl)c1Cl", "melting point": "81 to 82"}
{"molecule": "CCCc1c(OCCCCCCCCOc2ccc(C(=O)c3cccc(C(=O)O)c3)cc2CCC(=O)O)ccc2c1OCCC2=O", "melting point": "112 to 117"}
{"molecule": "CCN1C(=O)c2cccnc2Sc2ccccc21", "melting point": "148 to 149"}
{"molecule": "CCOCOC1(C(=O)CO)C(CC)CC2C3CC(CC)C4=CC(=O)C=CC4(C)C3C(O)CC21C", "note": "(configuration not stated)", "melting point": "100 to 102"}
{"molecule": "OC(Cn1cncn1)(c1ccc(F)cc1)C(F)(F)C(F)(F)C(F)(F)F", "note": "(configuration not stated)", "melting point": "126 to 127"}
{"molecule": "FC(F)(F)c1cc(-c2ccc(Cl)nn2)ccc1Cl", "melting point": "211 to 214"}
{"molecule": "O=C1CC(c2c(-c3ccc[nH]3)[nH]c3ccc(Cl)cc23)C(=O)N1", "note": "(configuration not stated)", "melting point": "138 to 144"}
{"molecule": "CC(=O)NC(C)(C)c1ccc(CN2CCN(c3cccc(F)n3)CC2)cc1", "melting point": "133 to 134"}
{"molecule": "Cc1ccc(Cl)c2c1N(C1CC1)CNS2(=O)=O", "melting point": "215 to 217"}
{"molecule": "CCOC(=O)c1cn(C2CC2)c2c(F)c(N3CCN(C)CC3)c(F)c([Si](C)(C)C)c2c1=O", "melting point": "231 to 233"}
{"molecule": "CNC(=S)N(C)Cc1cnc(Cl)s1", "melting point": "129 to 131"}
{"molecule": "C[C@@H]1c2ccccc2-c2ccc(Cl)cc2N1C(=O)c1ccc(O)cc1", "melting point": "274 to 276"}
{"molecule": "COc1ccc(S(=O)(=O)N(Cc2ccccc2)C2(C(=O)NO)CCSCC2)cc1", "melting point": "179 to 181"}
{"molecule": "CC(C)Oc1cn(-c2cccc(C(F)(F)F)c2)nc(-c2ccnn2-c2ccccc2)c1=O", "melting point": "137 to 139"}
{"molecule": "CC1=CC(=O)C(C)(N=Nc2ccc3ccccc3c2)O1", "note": "(configuration not stated)", "melting point": "76 to 77"}
{"molecule": "Cc1ccc(OCc2c(F)cccc2Cl)c(N)n1", "melting point": "108 to 109"}
{"molecule": "Cc1nc(NC(=O)c2cccc3ccccc23)sc1C(=O)NCc1ccccc1", "melting point": "99 to 101"}
{"molecule": "O=c1[nH]c2ccc(C(F)(F)F)cc2[nH]c1=O", "melting point": 330}
{"molecule": "Cc1c(C)c(N2C(=O)c3cc(Cl)c(Cl)cc3C2=O)c(C)c2c1OC(C)(C)C2c1ccc(C(C)C)cc1", "note": "(configuration not stated)", "melting point": "237 to 239"}
{"molecule": "Cn1c(C=NNC(N)=S)cnc1[N+](=O)[O-]", "melting point": "282 to 287"}
{"molecule": "CC#Cc1cnc(OC)nc1", "melting point": "88 to 89.5"}
{"molecule": "Cc1ccccc1Sc1c(O)c2c(Cl)cc(Cl)cc2[nH]c1=O", "melting point": "> 300"}
{"molecule": "COc1cccc(CCN2C(=O)c3ccccc3C2(O)c2ccc(C(F)(F)F)cc2)c1", "note": "(configuration not stated)", "melting point": 167}
{"molecule": "NC(=O)C(CCC(=O)O)N1Cc2c(N)cccc2C1=O", "note": "(configuration not stated)", "melting point": "334 to 336"}
{"molecule": "Cn1nc(C(F)(F)F)nc1NCCCCOc1cccc(CN2CCCCC2)c1", "melting point": 70}
{"molecule": "Cc1cc(C(O)(C(F)(F)F)C(F)(F)F)ccc1O", "melting point": "89.5 to 90.5"}
{"molecule": "CCOC(=O)COc1c(Cl)c(O)c2c(c1Cl)OC1(CCCCC1)CC2=O", "melting point": "134 to 135"}
{"molecule": "CC(O)Cc1cc2c(cc1C(=NNc1ccc(Cl)nn1)c1ccc([N+](=O)[O-])cc1)OCO2", "note": "(configuration not stated)", "melting point": "135 to 137"}
{"molecule": "O=Cc1c(-c2ccc(Cl)cc2)sc2ccccc12", "melting point": "99.7 to 101"}
{"molecule": "O=C1CCC(c2ccc3[nH]c(-c4ccnnc4)cc3c2)=NN1", "melting point": "> 300"}
{"molecule": "CCCCCCc1cc(-c2nc(-c3cc(CCCCCC)c(O)cc3O)nc(-c3cc(CCCCCC)c(O)cc3O)n2)c(O)cc1O", "melting point": "> 250"}
{"molecule": "Nc1nc2c(c(Nc3ccc(C(F)(F)F)cc3)n1)-c1ccccc1C2", "melting point": "229 to 231"}
{"molecule": "CC(C)(Oc1ccc(Cl)cc1)C(=O)OCc1ncc(C(=O)O)s1", "melting point": 124}
